Patent US20080020048A1, “Treatment of Respiratory Disease” (priority 2004, published 2008)

Assays:
[1] = Glycopyrrolate therapy, summary of findings of the studies; format: in vivo
Source text: Further, it is apparent that different dosages of the drug, without side-effects, are essentially equivalent in effect. […] This makes the medicament particularly suitable for the treatment of bronchospasm, or as a rescue medication.

asthma [2] = conditions: inhaled; cited from earlier work
asthma [3] = conditions: single administration of metered-dose aerosol; cited from earlier work

For `C[N+]1(C)CCC(OC(=O)C(O)(c2ccccc2)C2CCCC2)C1` (centres unmarked) [glycopyrrolate], the Onset of bronchodilation ([1]; in vivo) is given as “high and immediate”, the Tachycardia ([1]; problems associated with anti-muscarinics) is given as “apparently absent” and the “Duration of effective treatment” value (asthma [2]) is given as “up to 12 hours”. For the same compound, the “Duration of effective treatment, maximal” value (asthma [2]) was “up to 8 hours” and the Period of bronchodilation (asthma [3]) was 12 h.
